In brackets after ≈: the same amount, converted by molar mass.
Tests used:
[1] = CHI Log D procedure; assay type: physicochemical; conditions: pH 7.4
[2] = Solubility in PBS; assay type: physicochemical
Method in brief: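 The PBS solution was ultracentrifuged and the supernatant analyzed by HPLC. Its peak area was divided by that of a 50 μM peptide DMSO reference injection and multiplied by 50 uM to give solubility.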

CC(=O)N1CCC[C@]12CC=CCCCC1(CCCC=CCCCCCC[C@@](C)(C(=O)N[C@@H](Cc3ccccc3)C(=O)N[C@@H](Cc3csc4ccccc34)C(=O)N[C@@H](CCC(N)=O)C(N)=O)NC(=O)[C@H](C(C)C)NC(=O)[C@H](Cc3ccccn3)NC(=O)[C@H](C)NC(=O)[C@H](C)NC(=O)[C@H](CCC(=O)O)NC(=O)[C@H](CC(=O)O)NC1=O)NC(=O)[C@H](C)NC(=O)[C@H](CC(=O)O)NC2=O (stereo partly drawn) [I-386, Ac-PL3-Asp-Ala-B5-Asp-Glu-Ala-Ala-2pyrA-Val-S8-Phe-BztA-Gln-NH2]
CHI Log D [1]: 2.14
Solubility [2]: 47 µM (≈ 85.2 µg/mL)

CC(=O)N1CCC[C@]12CC=CCCCC1(CCCC=CCCCCCC[C@@](C)(C(=O)N[C@@H](Cc3cccc(F)c3F)C(=O)N[C@@H](Cc3csc4ccccc34)C(=O)N[C@@H](CCC(N)=O)C(N)=O)NC(=O)[C@H](C(C)C)NC(=O)[C@H](Cc3ccccc3)NC(=O)[C@H](C)NC(=O)[C@H](C)NC(=O)[C@H](CCC(=O)O)NC(=O)[C@H](CC(=O)O)NC1=O)NC(=O)[C@H](C)NC(=O)[C@H](CC(=O)O)NC2=O (stereo partly drawn) [I-388, Ac-PL3-Asp-Ala-B5-Asp-Glu-Ala-Ala-Phe-Val-S8-23FF-BztA-Gln-NH2]
CHI Log D [1]: 2.863
Solubility [2]: 10 µM (≈ 18.5 µg/mL)

CC(=O)N1CCC[C@]12CC=CCCCC1(CCCC=CCCCCCC[C@@](C)(C(=O)N[C@@H](Cc3cccc(F)c3F)C(=O)N[C@@H](Cc3csc4ccccc34)C(=O)N[C@@H](CCC(N)=O)C(N)=O)NC(=O)[C@H](C(C)C)NC(=O)[C@H](Cc3ccccc3)NC(=O)[C@H](C)NC(=O)[C@H](C)NC(=O)[C@H](CCC(=O)O)NC(=O)[C@H](CC(=O)O)NC1=O)NC(=O)[C@H](C)NC(=O)[C@H](CC(=O)O)NC2=O (stereo partly drawn) [I-389, Ac-PL3-Asp-Ala-B5-Asp-Glu-Ala-Ala-Phe-Val-S8-23FF-BztA-Gln-NH2]
CHI Log D [1]: 2.868
Solubility [2]: 17 µM (≈ 31.4 µg/mL)

CC(=O)N1CCC[C@]12CC=CCCCC1(CCCC=CCCCCCC[C@@](C)(C(=O)N[C@@H](Cc3ccccc3)C(=O)N[C@@H](Cc3csc4ccccc34)C(=O)N[C@@H](CCC(N)=O)C(N)=O)NC(=O)[C@H](CCC(N)=O)NC(=O)[C@H](Cc3ccccc3)NC(=O)[C@H](C)NC(=O)[C@H](C)NC(=O)[C@H](CCC(=O)O)NC(=O)[C@H](CC(=O)O)NC1=O)NC(=O)[C@H](C)NC(=O)[C@H](Cc1nn[nH]n1)NC2=O (stereo partly drawn) [I-416, Ac-PL3-tetz-Ala-B5-Asp-Glu-Ala-Ala-Phe-Gln-S8-Phe-BztA-Gln-NH2]
CHI Log D [1]: 2.058
Solubility [2]: 44 µM (≈ 82.1 µg/mL)

CC(=O)N1CCC[C@]12CC=CCCCC1(CCCC=CCCCCCC[C@@](C)(C(=O)N[C@@H](Cc3ccccc3)C(=O)N[C@@H](Cc3csc4ccccc34)C(=O)N[C@@H](CCC(N)=O)C(N)=O)NC(=O)[C@H](CCC(N)=O)NC(=O)[C@H](Cc3ccccc3)NC(=O)[C@H](C)NC(=O)[C@H](C)NC(=O)[C@H](CCC(=O)O)NC(=O)[C@H](CC(=O)O)NC1=O)NC(=O)[C@H](C)NC(=O)[C@H](Cc1nn[nH]n1)NC2=O (stereo partly drawn) [I-417, Ac-PL3-tetz-Ala-B5-Asp-Glu-Ala-Ala-Phe-Gln-S8-Phe-BztA-Gln-NH2]
CHI Log D [1]: 2.085
Solubility [2]: 30 µM (≈ 56 µg/mL)

CC(=O)N1CCC[C@]12CC=CCCCC1(CCCC=CCCCCCC[C@@](C)(C(=O)N[C@@H](Cc3cn(C)cn3)C(=O)N[C@@H](Cc3csc4ccccc34)C(=O)N[C@@H](CCC(N)=O)C(N)=O)NC(=O)[C@H](CC(N)=O)NC(=O)[C@H](Cc3ccccc3)NC(=O)[C@H](C)NC(=O)[C@H](C)NC(=O)[C@H](CCC(=O)O)NC(=O)[C@H](CC(=O)O)NC1=O)NC(=O)[C@H](C)NC(=O)[C@H](CC(=O)O)NC2=O (stereo partly drawn) [I-439, Ac-PL3-Asp-Ala-B5-Asp-Glu-Ala-Ala-Phe-Asn-S8-1meH-BztA-Gln-NH2]
CHI Log D [1]: 1.408
Solubility [2]: 50 µM (≈ 91.6 µg/mL)

Reference: patent publication US20240116985A1, “STAPLED PEPTIDES AND METHODS THEREOF” (priority 2020, published 2024)
